Measured values: article PMC7372189 (Frontiers in Pharmacology, 2020)
Where two headings read alike, the source gives them in different places.

What was measured:
[1] = biological target: T1, TRPV1 channel (Rattus norvegicus, UniProt O35433); assay: Two-electrode voltage clamp (TEVC) in Xenopus oocytes expressing TRPV1 channels; format: cell-based; conditions: for maximal effect (Ix/Icapsaicin): Imax relative to current in saturating capsaicin
T1 construct: expressed in transfected cells; host or cells: Xenopus laevis oocytes injected with in vitro transcribed TRPV1 cRNA
T1 sequence (O35433 whole entry): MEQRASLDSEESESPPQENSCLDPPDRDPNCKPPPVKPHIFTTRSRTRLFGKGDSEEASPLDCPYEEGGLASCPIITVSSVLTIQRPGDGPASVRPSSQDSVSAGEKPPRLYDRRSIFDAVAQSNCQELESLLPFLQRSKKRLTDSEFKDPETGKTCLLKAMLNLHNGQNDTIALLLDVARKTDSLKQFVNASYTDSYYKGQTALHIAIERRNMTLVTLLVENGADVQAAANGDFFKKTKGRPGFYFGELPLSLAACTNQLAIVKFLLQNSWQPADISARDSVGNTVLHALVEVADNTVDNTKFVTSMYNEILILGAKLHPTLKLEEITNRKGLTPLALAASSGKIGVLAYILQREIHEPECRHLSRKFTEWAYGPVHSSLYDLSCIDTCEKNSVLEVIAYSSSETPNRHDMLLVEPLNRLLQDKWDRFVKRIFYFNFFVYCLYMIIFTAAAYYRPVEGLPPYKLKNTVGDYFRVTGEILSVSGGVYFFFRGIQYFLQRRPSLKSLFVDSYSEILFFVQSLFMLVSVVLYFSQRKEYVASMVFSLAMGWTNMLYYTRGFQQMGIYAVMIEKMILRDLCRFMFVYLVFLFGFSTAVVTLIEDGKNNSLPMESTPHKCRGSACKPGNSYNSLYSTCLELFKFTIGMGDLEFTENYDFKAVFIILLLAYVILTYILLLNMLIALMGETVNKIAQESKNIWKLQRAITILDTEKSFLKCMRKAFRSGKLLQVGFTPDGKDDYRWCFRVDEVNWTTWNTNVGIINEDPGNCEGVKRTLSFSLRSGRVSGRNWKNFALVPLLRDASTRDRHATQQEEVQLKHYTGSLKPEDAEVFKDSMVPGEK

[2] = system: tactile allodynia induced by intra-plantar carrageenan; assay: Carrageenan model of inflammatory pain, tactile allodynia measured with von Frey filaments after topical application; format: in vivo, Sprague–Dawley rats; conditions: for Effect duration / Time of maximal analgesia / Time to first effect (first significant analgesic effect): after topical application; for Concentration at maximal analgesia / ED50 of maximal effect / Maximal percentage of analgesia attained: topical in cream; for ED50 of maximal effect: extrapolated from linear fit of %MPE at time of maximal analgesia; for Maximal percentage of analgesia attained: relative to cream (0%) and saline (100%) controls
Procedure: Male Sprague–Dawley rats (approximately 200–300 g body weight) were used. Food and water were supplied ad libitum and the animals were kept in a 12 h light–dark cycle in their home cages throughout the study. All procedures were in accordance with the U.S. National Institutes of Health guidelines and were approved by the bioethical Committee of the Universidad Andres Bello, Acta 11/2016.
2% λ-Carrageenan (Santa Cruz Biotechnology) was administered subcutaneously to induce tactile allodynia according to previous studies ([Yoshimura and Yonehara, 2001]; [Fehrenbacher et al., 2012]). Capsaicin was obtained from Sigma. Compounds 1, 2, and 3 were obtained from the National Cancer Institute. […] Novo base moisturizing cream (Charles Lasserre) was used as vehicle for all tested compounds including capsaicin and was used alone as vehicle control. The different concentrations used can be found in Table 3.
Rats were randomly assigned into the following groups for all compounds: EC50, 10-fold EC50, 100-fold EC50, 1,000-fold EC50, a control group treated with cream only and a control group for 2% λ-Carrageenan in which saline was injected instead of λ-Carrageenan.
The λ-Carrageenan model for inflammatory pain was used to induce mechanical allodynia lasting for less than 24 h, as reported elsewhere ([Yoshimura and Yonehara, 2001]; [Fehrenbacher et al., 2012]). In short, animals were injected with 100 µl of 2% λ-Carrageenan diluted in saline, or saline alone as vehicle control, into the left hind paw. One hour later, capsaicin or one of the three compounds dissolved in cream was administered on the plantar surface until fully absorbed using a cotton swab. Then the rat was placed in the test chamber and acclimated for 5 min.
The day before the experiments, tactile thresholds were measured in all animals to attain a baseline and to ensure normal sensitivity to tactile stimuli. On the day of the experiment, the cream that contained the compounds was applied only once, 5 min before the evaluation began, and the effects of each compound was measured over time, once per hour, for eight consecutive hours. Von Frey filaments were used to measure plantar mechanical sensitivity and inflammatory allodynia. Briefly, the rats were placed into the arena with a mesh floor and after the 5-min habituation, were tested using von Frey filaments. The following von Frey filaments were applied against the plantar surface: 52.2 g (512 mN), 26.1 g (256 mN), 13.0 g (128 mN), 6.52 g (64 mN), 3.26 g (32 mN). To measure tactile response, the up-down method was used ([Dixon, 1980]), with slight modifications: the starting filament (13.0 g) was applied perpendicularly to the plantar surface of the hind paw until it buckled for 3 s or until the rat withdrew its foot. If the rat responded to the filament, the procedure was repeated with the smaller filament (6.52 g) and then repeated sequentially until the smallest filament that elicits a response was identified. […] To confirm that the identified filament was the smallest that could elicit a response, the filament was changed to the next smaller filament with no response and then increased again to the filament that produced a response. The responses (X) and lack of responses (0) were recorded to obtain the tabular values from [Dixon (1980)], corresponding to:
Data from von Frey filaments was obtained as a dose–response curve for each compound over the course of 8 h. All groups were tested for normality and a two-way ANOVA with Bonferroni post hoc test was used to analyze differences. Differences were considered significant when p < 0.05 and averages are shown ± standard error of the mean (SE).
The paw withdrawal threshold (PWT) for each time point was calculated by using the following equation proposed by [Dixon, 1980]: […]

[3] = higher concentrations than 10xEC50

Row | SMILES | maximal effect (Ix/Icapsaicin) [1] | EC50 ([1]; read-out: EC50) [nM] | Analgesic effect relative to vehicle, significance of tactile thresholds (von Frey) ([2]; Time 7 h, x1000 EC50) | Analgesic effect relative to vehicle, significance of tactile thresholds (von Frey) ([2]; Time 8 h, x100 EC50) | Analgesic effect relative to vehicle, significance of tactile thresholds (von Frey) ([2]; Time 8 h, x1000 EC50) | Analgesic effect relative to vehicle, significance of tactile thresholds (von Frey) ([2]; Time 9 h, x100 EC50) | Analgesic effect relative to vehicle, significance of tactile thresholds (von Frey) ([2]; Time 9 h, x1000 EC50) | Effect duration [2] [h] | Time of maximal analgesia [2] [h] | Time to first effect (first significant analgesic effect) [2] | Concentration at maximal analgesia [2] [µM] | ED50 of maximal effect [2] [nM] | Maximal percentage of analgesia attained [2] [%] | Analgesic effect relative to vehicle, significance of tactile thresholds (von Frey) ([2]; Time 1 h, x1000 EC50) | Analgesic effect relative to vehicle, significance of tactile thresholds (von Frey) ([2]; Time 2 h, x100 EC50) | Analgesic effect relative to vehicle, significance of tactile thresholds (von Frey) ([2]; Time 2 h, x1000 EC50) | Analgesic effect relative to vehicle, significance of tactile thresholds (von Frey) ([2]; Time 3 h, x1000 EC50) | Analgesic effect relative to vehicle, significance of tactile thresholds (von Frey) ([2]; Time 4 h, x100 EC50) | Analgesic effect relative to vehicle, significance of tactile thresholds (von Frey) ([2]; Time 4 h, x1000 EC50) | Analgesic effect relative to vehicle, significance of tactile thresholds (von Frey) ([2]; Time 7 h, x100 EC50) | further results
1 | COc1ccc(C(=O)NNC(=O)CSc2nnc(-c3ccc(C)cc3)n2C)cc1 [Compound 3] | 0.89 | 92 ± 10 | * (*p < 0.05) | * (*p < 0.05) | * (*p < 0.05) | * (*p < 0.05) | * (*p < 0.05) | 2 | 7 | Hour 7 h | 92 | 139300 | 75 |  |  |  |  |  |  |  | Time to first effect (first significant analgesic effect) ([2]; listed as compound 3): 7 h
2 | COc1cc(CNC(=O)CCCC/C=C/C(C)C)ccc1O [Capsaicin, reference compound] | 1 |  |  |  |  |  |  | 2 | 4 | Hour 3 h | 44 | 86900 | 86 |  |  |  |  |  |  |  | Time to first effect (first significant analgesic effect) ([2]; listed as capsaicin): 3 h
3 | C=C(C)[C@]12C[C@@H](C)[C@@]34O[C@](Cc5ccccc5)(O[C@@H]1[C@@H]3C=C(COC(=O)Cc1ccc(O)c(OC)c1)C[C@]1(O)C(=O)C(C)=C[C@@H]41)O2 [Resiniferatoxin, reference compound] |  |  |  |  |  |  |  |  |  |  |  |  |  |  |  |  |  |  |  |  | EC50 [1]: 0.7 nM
4 | COc1cc(C2C(C(=O)OC3CCCC3)=C(C)NC3=C2C(=O)CC(c2ccc(OC)c(OC)c2)C3)ccc1O (stereo not drawn) [Compound 1] | 0.8 | 53 ± 6 | *** (***p < 0.001) | ** (**p < 0.01) | *** (***p < 0.001) | ** (**p < 0.01) | ** (**p < 0.01) | 8 | 3 |  | 53 | 37700 | 83 | ** (**p < 0.01) | ** (**p < 0.01) | *** (***p < 0.001) | **** (****p < 0.0001) | * (*p < 0.05) | *** (***p < 0.001) | *** (***p < 0.001) | Duration of significant analgesic effect ([2]; 10xEC50): 8 h; Time of first significant analgesic effect compared to vehicle ([2]; 10xEC50): 1 h; Analgesic effect relative to vehicle, significance of tactile thresholds (von Frey) ([2]; Time 1 h, x10 EC50): * (*p < 0.05); Analgesic effect relative to vehicle, significance of tactile thresholds (von Frey) ([2]; Time 1 h, x100 EC50): * (*p < 0.05); Analgesic effect relative to vehicle, significance of tactile thresholds (von Frey) ([2]; Time 2 h, x10 EC50): **** (****p < 0.0001); Analgesic effect relative to vehicle, significance of tactile thresholds (von Frey) ([2]; Time 3 h, x10 EC50): **** (****p < 0.0001); Analgesic effect relative to vehicle, significance of tactile thresholds (von Frey) ([2]; Time 3 h, x100 EC50): ** (**p < 0.01); Analgesic effect relative to vehicle, significance of tactile thresholds (von Frey) ([2]; Time 4 h, x10 EC50): *** (***p < 0.001); Analgesic effect relative to vehicle, significance of tactile thresholds (von Frey) ([2]; Time 5 h, x10 EC50): **** (****p < 0.0001); Analgesic effect relative to vehicle, significance of tactile thresholds (von Frey) ([2]; Time 5 h, x100 EC50): ** (**p < 0.01); Analgesic effect relative to vehicle, significance of tactile thresholds (von Frey) ([2]; Time 5 h, x1000 EC50): *** (***p < 0.001); Analgesic effect relative to vehicle, significance of tactile thresholds (von Frey) ([2]; Time 6 h, x10 EC50): ** (**p < 0.01); Analgesic effect relative to vehicle, significance of tactile thresholds (von Frey) ([2]; Time 6 h, x100 EC50): ** (**p < 0.01); Analgesic effect relative to vehicle, significance of tactile thresholds (von Frey) ([2]; Time 6 h, x1000 EC50): *** (***p < 0.001); Analgesic effect relative to vehicle, significance of tactile thresholds (von Frey) ([2]; Time 7 h, x10 EC50): ** (**p < 0.01); Analgesic effect relative to vehicle, significance of tactile thresholds (von Frey) ([2]; Time 8 h, x10 EC50): * (*p < 0.05); Duration of significant analgesic effect [2, 3]: ≥ 9 h; Time of first significant analgesic effect compared to vehicle [2, 3]: 1 h
5 | Cc1cccc(NC(=O)C2CCCN(C(=O)OCc3ccccc3)C2)c1 (stereo not drawn) [Compound 2] | 0.73 | 53 ± 4.3 | ** (**p < 0.01) |  | ** (**p < 0.01) |  |  | 3 | 3 |  | 53 | 6800 | 100 | *** (***p < 0.001) | * (*p < 0.05) | ** (**p < 0.01) | *** (***p < 0.001) | * (*p < 0.05) | * (*p < 0.05) | ** (**p < 0.01) | Time of first significant analgesic effect compared to vehicle ([2]; 100xEC50): 2 h; Duration of significant analgesic effect ([2]; higher concentrations than 100xEC50): 3 h
